From PMC4821887, “Identification of chemicals that mimic transcriptional changes associated with autism, brain aging and neurodegeneration” (Nature Communications, 2016)

System: mouse cortical cultures
Experiment: RNA-seq differential expression (DESeq) against matched vehicle
Type: cell-based
Set-up: key to MeanFenamidone Bcl11b / MeanFenamidone Slc12a4 / MeanFenamidone Abca1 / MeanFenamidone Hmox1 / MeanFenamidone Il1rap / MeanFenamidone Cyba / MeanFenamidone Narf / MeanFenamidone Bnip3 / MeanFenamidone Amotl2 / MeanFenamidone Gad2 / MeanFenamidone Vsnl1 / MeanFenamidone Fam178a: DESeq mean of counts over RefSeq exons
Method: Figure 4 Cluster 2 chemicals alter expression of a common set of genes. […] RNA-seq was performed in quadruplicate after treating cortical cultures with fenamidone (10 μM) or pyraclostrobin (0.1 μM) for 24 h (n=3 biological replicates) and compared with matched vehicle controls using DESeq to detect differentially expressed genes, listed in Supplementary Data 4.
Cultures were treated with the non-cytotoxic dose of each chemical, by exchanging half of the original medium with chemicals at 2 × concentration in prewarmed feeding medium, on DIV 7 for 24 h in 12-well plates at a density of 5 × 10^5 cells per well. RNA was isolated using RNeasy plus mini kit (Cat. #74134, Qiagen). […]. Samples were further assessed for quality using either an Agilent Bioanalyzer 2100 or TapeStation 2200 to obtain a RIN. RIN values exceeding 7 were used for sequencing. RNA samples were used to generate and barcode complementary DNA libraries using the TruSeq RNA Library Preparation Kit at the UNC High Throughput Sequencing Facility. Pools of 24 multiplexed samples were sequenced per lane on an Illumina HiSeq 2500 using 50-bp paired-end reads.
RNA-seq reads were filtered using TagDust and aligned to the reference mouse genome (mm9) with TopHat using default parameters. Reads aligning to ribosomal RNA genes were removed. Transcript abundance was estimated by computing Reads per kilobase per million mapped reads (RPKM) using RefSeq gene models aggregated by gene symbol. For differential expression analyses, raw counts over RefSeq exons were used, and then were compared across samples using DESeq[62].

## CSC1=N[C@@](C)(c2ccccc2)C(=O)N1Nc1ccccc1 [fenamidone]
Gene Dclk1
  MeanFenamidone: 2436.98
  log2FoldChange: -1.095
Gene Dcxr
  MeanFenamidone: 235.507
  log2FoldChange: 3.058
Gene Diras1
  MeanFenamidone: 170.873
  log2FoldChange: -1.25
Gene Dlg2
  MeanFenamidone: 695.294
  log2FoldChange: -1.3121
Gene Dlx1as, DESeq mean, 4 reps
  MeanFenamidone Dlx1as: 22.8822
Gene Dlx1as, vs vehicle, 4 reps
  log2FoldChange Dlx1as: -2.397
Gene Dnaja1
  MeanFenamidone: 313.407
  log2FoldChange: -1.061
Gene Dnm3, DESeq mean, 4 reps
  MeanFenamidone Dnm3: 187.1
Gene Dnm3, vs vehicle, 4 reps
  log2FoldChange Dnm3: -1.706
Gene Dpp10, DESeq mean, 4 reps
  MeanFenamidone Dpp10: 62.8613
Gene Dpp10, vs vehicle, 4 reps
  log2FoldChange Dpp10: -1.776
Gene Dzank1, DESeq mean, 4 reps
  MeanFenamidone Dzank1: 112.179
Gene Dzank1, vs vehicle, 4 reps
  log2FoldChange Dzank1: -1.428
Gene Eda2r, DESeq mean, 4 reps
  MeanFenamidone Eda2r: 436.944
Gene Eda2r, vs vehicle, 4 reps
  log2FoldChange Eda2r: 1.783
Gene Efemp1, DESeq mean, 4 reps
  MeanFenamidone Efemp1: 94.4395
Gene Efemp1, vs vehicle, 4 reps
  log2FoldChange Efemp1: 2.414
Gene Egfr
  MeanFenamidone: 148.93
  log2FoldChange: 1.836
Gene Eif4ebp1, DESeq mean, 4 reps
  MeanFenamidone Eif4ebp1: 125.436
Gene Eif4ebp1, vs vehicle, 4 reps
  log2FoldChange Eif4ebp1: 2.511
Gene Elavl2, DESeq mean, 4 reps
  MeanFenamidone Elavl2: 207.006
Gene Elavl2, vs vehicle, 4 reps
  log2FoldChange Elavl2: -1.527
Gene Elovl1, DESeq mean, 4 reps
  MeanFenamidone Elovl1: 104.754
Gene Elovl1, vs vehicle, 4 reps
  log2FoldChange Elovl1: 2.586
Gene Enox1
  MeanFenamidone: 25.4463
  log2FoldChange: -1.757
Gene Epas1
  MeanFenamidone: 154.593
  log2FoldChange: 2.42
Gene Ephx1, DESeq mean, 4 reps
  MeanFenamidone Ephx1: 789.724
Gene Ephx1, vs vehicle, 4 reps
  log2FoldChange Ephx1: 1.959
Gene Epm2aip1
  MeanFenamidone: 711.569
  log2FoldChange: -0.9776
Gene Etfb
  MeanFenamidone: 102.831
  log2FoldChange: 1.903
Gene Evc
  MeanFenamidone: 45.1413
  log2FoldChange: 1.984
Gene F2r, DESeq mean, 4 reps
  MeanFenamidone F2r: 1216.46
Gene F2r, vs vehicle, 4 reps
  log2FoldChange F2r: 2.012
Gene F3, DESeq mean, 4 reps
  MeanFenamidone F3: 324.561
Gene F3, vs vehicle, 4 reps
  log2FoldChange F3: 2.464
Gene Fam78b
  MeanFenamidone: 119.127
  log2FoldChange: -1.289
Gene Fam163b, DESeq mean, 4 reps
  MeanFenamidone Fam163b: 135.664
Gene Fam163b, vs vehicle, 4 reps
  log2FoldChange Fam163b: -1.491
Gene Fam178a, DESeq mean, 4 reps
  MeanFenamidone Fam178a: 780.387
Gene Fam178a, vs vehicle, 4 reps
  log2FoldChange Fam178a: 1.493
Gene Fat1, DESeq mean, 4 reps
  MeanFenamidone Fat1: 2188.76
Gene Fat1, vs vehicle, 4 reps
  log2FoldChange Fat1: 1.677
Gene Fbn1, DESeq mean, 4 reps
  MeanFenamidone Fbn1: 159.478
Gene Fbn1, vs vehicle, 4 reps
  log2FoldChange Fbn1: 2.303
Gene Fbxo9, DESeq mean, 4 reps
  MeanFenamidone Fbxo9: 32.2944
Gene Fbxo9, vs vehicle, 4 reps
  log2FoldChange Fbxo9: -2.181
Gene Fermt2, DESeq mean, 4 reps
  MeanFenamidone Fermt2: 437.255
Gene Fermt2, vs vehicle, 4 reps
  log2FoldChange Fermt2: 1.474
Gene Fgf13
  MeanFenamidone: 224.473
  log2FoldChange: -1.202
Gene Fgfr3, DESeq mean, 4 reps
  MeanFenamidone Fgfr3: 309.362
Gene Fgfr3, vs vehicle, 4 reps
  log2FoldChange Fgfr3: 1.548
Gene Fkbp9, DESeq mean, 4 reps
  MeanFenamidone Fkbp9: 763.489
Gene Fkbp9, vs vehicle, 4 reps
  log2FoldChange Fkbp9: 1.78
Gene Flna, DESeq mean, 4 reps
  MeanFenamidone Flna: 4335.97
Gene Flna, vs vehicle, 4 reps
  log2FoldChange Flna: 1.783
Gene Flnb, DESeq mean, 4 reps
  MeanFenamidone Flnb: 1183.24
Gene Flnb, vs vehicle, 4 reps
  log2FoldChange Flnb: 2.364
Gene Flnc, DESeq mean, 4 reps
  MeanFenamidone Flnc: 270.515
Gene Flnc, vs vehicle, 4 reps
  log2FoldChange Flnc: 3.121
Gene Fn1, DESeq mean, 4 reps
  MeanFenamidone Fn1: 2242.75
Gene Fn1, vs vehicle, 4 reps
  log2FoldChange Fn1: 2.874
Gene Fzd7
  MeanFenamidone: 201.665
  log2FoldChange: 1.705
Gene Gad1, DESeq mean, 4 reps
  MeanFenamidone Gad1: 102.047
Gene Gad1, vs vehicle, 4 reps
  log2FoldChange Gad1: -2.011
Gene Gad2, DESeq mean, 4 reps
  MeanFenamidone Gad2: 49.2241
Gene Gad2, vs vehicle, 4 reps
  log2FoldChange Gad2: -2.6503
Gene Gas6
  MeanFenamidone: 1188.11
  log2FoldChange: 1.393
Gene Gas7
  MeanFenamidone: 704.19
  log2FoldChange: -1.128
Gene Gdf15, DESeq mean, 4 reps
  MeanFenamidone Gdf15: 107.196
Gene Gdf15, vs vehicle, 4 reps
  log2FoldChange Gdf15: 3.431
Gene Glis2
  MeanFenamidone: 157.775
  log2FoldChange: 1.455
Gene Gls, DESeq mean, 4 reps
  MeanFenamidone Gls: 297.391
Gene Gls, vs vehicle, 4 reps
  log2FoldChange Gls: -1.569
Gene Gm5424, DESeq mean, 4 reps
  MeanFenamidone Gm5424: 1293.84
Gene Gm5424, vs vehicle, 4 reps
  log2FoldChange Gm5424: 2.267
Gene Gng2
  MeanFenamidone: 1878.98
  log2FoldChange: -1.047
Gene Gpnmb, DESeq mean, 4 reps
  MeanFenamidone Gpnmb: 552.991
Gene Gpnmb, vs vehicle, 4 reps
  log2FoldChange Gpnmb: 3.791
Gene Gpr22
  MeanFenamidone: 61.8379
  log2FoldChange: -1.6935
Gene Gpr88, DESeq mean, 4 reps
  MeanFenamidone Gpr88: 81.4648
Gene Gpr88, vs vehicle, 4 reps
  log2FoldChange Gpr88: -2.268
Gene Gpx1, DESeq mean, 4 reps
  MeanFenamidone Gpx1: 550.81
Gene Gpx1, vs vehicle, 4 reps
  log2FoldChange Gpx1: 1.571
Gene Grik3, DESeq mean, 4 reps
  MeanFenamidone Grik3: 96.3695
Gene Grik3, vs vehicle, 4 reps
  log2FoldChange Grik3: -2.234
Gene Grin1os, Fenamidone, 4 reps, vs matched vehicle
  MeanFenamidone (DESeq mean normalized counts): 76.6399
Gene Grm5
  MeanFenamidone: 468.182
  log2FoldChange: -1.139
Gene Gss, DESeq mean, 4 reps
  MeanFenamidone Gss: 95.0873
Gene Gss, vs vehicle, 4 reps
  log2FoldChange Gss: 2.127
Gene Gstm1, DESeq mean, 4 reps
  MeanFenamidone Gstm1: 533.415
Gene Gstm1, vs vehicle, 4 reps
  log2FoldChange Gstm1: 2.03
Gene Gtse1
  MeanFenamidone: 113.042
  log2FoldChange: 1.636
Gene Gxylt2, DESeq mean, 4 reps
  MeanFenamidone Gxylt2: 58.8169
Gene Gxylt2, vs vehicle, 4 reps
  log2FoldChange Gxylt2: 2.562
Gene Hbegf, DESeq mean, 4 reps
  MeanFenamidone Hbegf: 726.667
Gene Hbegf, vs vehicle, 4 reps
  log2FoldChange Hbegf: 2.744
Gene Hivep2
  MeanFenamidone: 554.938
  log2FoldChange: -0.989
Gene Hmox1, DESeq mean, 4 reps
  MeanFenamidone Hmox1: 1318.42
Gene Hmox1, vs vehicle, 4 reps
  log2FoldChange Hmox1: 3.72
Gene Hspg2, DESeq mean, 4 reps
  MeanFenamidone Hspg2: 1082.79
Gene Hspg2, vs vehicle, 4 reps
  log2FoldChange Hspg2: 3.326
Gene Icam1, DESeq mean, 4 reps
  MeanFenamidone Icam1: 359.44
Gene Icam1, vs vehicle, 4 reps
  log2FoldChange Icam1: 2.082
Gene Igdcc4, DESeq mean, 4 reps
  MeanFenamidone Igdcc4: 745.33
Gene Igdcc4, vs vehicle, 4 reps
  log2FoldChange Igdcc4: 1.594
Gene Il1rap, DESeq mean, 4 reps
  MeanFenamidone Il1rap: 123.358
Gene Il1rap, vs vehicle, 4 reps
  log2FoldChange Il1rap: 1.873
Gene Inf2, DESeq mean, 4 reps
  MeanFenamidone Inf2: 157.523
Gene Inf2, vs vehicle, 4 reps
  log2FoldChange Inf2: 1.741
Gene Irs1
  MeanFenamidone: 506.425
  log2FoldChange: 1.154
Gene Itga3, DESeq mean, 4 reps
  MeanFenamidone Itga3: 452.545
Gene Itga3, vs vehicle, 4 reps
  log2FoldChange Itga3: 2.403
Gene Itga5, DESeq mean, 4 reps
  MeanFenamidone Itga5: 86.8768
Gene Itga5, vs vehicle, 4 reps
  log2FoldChange Itga5: 3.801
Gene Itga6, DESeq mean, 4 reps
  MeanFenamidone Itga6: 547.54
Gene Itga6, vs vehicle, 4 reps
  log2FoldChange Itga6: 1.506
Gene Itga7, DESeq mean, 4 reps
  MeanFenamidone Itga7: 82.7144
Gene Itga7, vs vehicle, 4 reps
  log2FoldChange Itga7: 2.577
Gene Itgav, DESeq mean, 4 reps
  MeanFenamidone Itgav: 659.409
Gene Itgav, vs vehicle, 4 reps
  log2FoldChange Itgav: 1.938
Gene Itgb1, DESeq mean, 4 reps
  MeanFenamidone Itgb1: 2073.15
Gene Itgb1, vs vehicle, 4 reps
  log2FoldChange Itgb1: 1.665
Gene Kcnc2
  MeanFenamidone: 16.7005
  log2FoldChange: -1.836
Gene Kcnh3, DESeq mean, 4 reps
  MeanFenamidone Kcnh3: 28.6602
Gene Kcnh3, vs vehicle, 4 reps
  log2FoldChange Kcnh3: -2.172
Gene Kcnv1, DESeq mean, 4 reps
  MeanFenamidone Kcnv1: 52.8142
Gene Kcnv1, vs vehicle, 4 reps
  log2FoldChange Kcnv1: -2.08
Gene Kctd12
  MeanFenamidone: 687.782
  log2FoldChange: -1.125
Gene Kdelc2, DESeq mean, 4 reps
  MeanFenamidone Kdelc2: 146.187
Gene Kdelc2, vs vehicle, 4 reps
  log2FoldChange Kdelc2: 1.909
Gene Kif1c, DESeq mean, 4 reps
  MeanFenamidone Kif1c: 782.878
Gene Kif1c, vs vehicle, 4 reps
  log2FoldChange Kif1c: 2.167
